Results: patent US20130252890A1, “6,7-DIHYDRO-5H-BENZO[7]ANNULENE DERIVATIVES, PROCESS FOR PREPARATION THEREOF, PHARMACEUTICAL PREPARATIONS COMPRISING THEM, AND THE USE THEREOF FOR PRODUCTION OF MEDICAMENTS” (BAYER INTELLECTUAL PROPERTY GMBH, priority 2010, published 2013)

Target: T1, oestrogen receptor (ER) (Homo sapiens, UniProt P03372)
T1 construct: These MVLN cells express, along with the functional oestrogen receptor (ER), a reporter construct; endogenous in cells; host or cells: MVLN cells (MCF7 derivative carrying a luciferase reporter construct)
T1 sequence (P03372 1-595): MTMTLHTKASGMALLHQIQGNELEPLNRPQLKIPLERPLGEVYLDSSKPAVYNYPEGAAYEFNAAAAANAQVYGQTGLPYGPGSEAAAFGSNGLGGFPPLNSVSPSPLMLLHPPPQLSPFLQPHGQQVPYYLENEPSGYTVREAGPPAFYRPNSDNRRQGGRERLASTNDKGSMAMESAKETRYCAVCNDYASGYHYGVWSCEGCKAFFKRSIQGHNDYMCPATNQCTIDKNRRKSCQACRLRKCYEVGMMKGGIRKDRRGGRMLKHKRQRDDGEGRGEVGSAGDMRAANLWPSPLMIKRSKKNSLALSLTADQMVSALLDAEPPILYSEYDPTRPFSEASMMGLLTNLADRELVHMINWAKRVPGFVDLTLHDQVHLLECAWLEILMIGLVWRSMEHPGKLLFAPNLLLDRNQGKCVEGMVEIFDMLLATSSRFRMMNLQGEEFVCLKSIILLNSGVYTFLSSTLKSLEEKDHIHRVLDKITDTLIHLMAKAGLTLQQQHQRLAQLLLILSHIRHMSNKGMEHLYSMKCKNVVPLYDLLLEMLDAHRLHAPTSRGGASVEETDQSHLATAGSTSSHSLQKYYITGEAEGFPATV
Assay: Anti-oestrogenic action in MVLN cells (inhibition of estradiol-induced luciferase)
Assay type: cell-based
Conditions: inhibition of estradiol-induced luciferase signal, value of Ex. 44 is a mean value, read-out: Antioestrogenic action in vitro: MVLN transactivation antagonism IC50
Summary of the method: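 Inhibition of estradiol-driven luciferase expression was measured with compounds co-applied alongside oestrogen. Reporter system: MCF7-derived MVLN cells expressing endogenous functional ER and an ER-responsive luciferase construct.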

IC50: 5.6 nM
Compound: CN(CCCCCCC1=C(c2cc(F)cc(F)c2)CCCc2cc(O)ccc21)CCCCS(=O)(=O)CCCC(F)(F)F [Example 44, 8-(3,5-Difluorophenyl)-9-[6-(methyl{4-[(4,4,4-trifluorobutyl)sulphonyl]butyl}amino)hexyl]-6,7-dihydro-5H-benzo[7]annulen-3-ol]
